In US11878965B2, “Inhibitors of peptidylarginine deiminases” (Gilead Sciences, Inc., priority 2020, dated 2024):

Target: human PAD4 (Homo sapiens (Human), UniProt Q9UM07)
Assay: In Vitro PAD4 BAEE Biochemical Assay
Settings: geometric mean of multiple experiments
How it was run: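 Deimination of BAEE substrate (3 mM) measured as ammonia via o-phthalaldehyde–DTT isoindole fluorescence, 405/535 nm. Tag-free bacterially expressed human PAD4 at 5 nM with 2 mM calcium chloride, pH 7.6 MOPS buffer, 30 min compound preincubation then 2 h reaction, both at 25 °C.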

[1] = recombinant PAD4 5 nM, 2 mM calcium chloride, 3 mM BAEE substrate
[2] = human PAD4, BAEE substrate, 5 nM PAD4, 2 mM calcium chloride, 3 mM BAEE

Sequence of human PAD4 (Q9UM07 2-663): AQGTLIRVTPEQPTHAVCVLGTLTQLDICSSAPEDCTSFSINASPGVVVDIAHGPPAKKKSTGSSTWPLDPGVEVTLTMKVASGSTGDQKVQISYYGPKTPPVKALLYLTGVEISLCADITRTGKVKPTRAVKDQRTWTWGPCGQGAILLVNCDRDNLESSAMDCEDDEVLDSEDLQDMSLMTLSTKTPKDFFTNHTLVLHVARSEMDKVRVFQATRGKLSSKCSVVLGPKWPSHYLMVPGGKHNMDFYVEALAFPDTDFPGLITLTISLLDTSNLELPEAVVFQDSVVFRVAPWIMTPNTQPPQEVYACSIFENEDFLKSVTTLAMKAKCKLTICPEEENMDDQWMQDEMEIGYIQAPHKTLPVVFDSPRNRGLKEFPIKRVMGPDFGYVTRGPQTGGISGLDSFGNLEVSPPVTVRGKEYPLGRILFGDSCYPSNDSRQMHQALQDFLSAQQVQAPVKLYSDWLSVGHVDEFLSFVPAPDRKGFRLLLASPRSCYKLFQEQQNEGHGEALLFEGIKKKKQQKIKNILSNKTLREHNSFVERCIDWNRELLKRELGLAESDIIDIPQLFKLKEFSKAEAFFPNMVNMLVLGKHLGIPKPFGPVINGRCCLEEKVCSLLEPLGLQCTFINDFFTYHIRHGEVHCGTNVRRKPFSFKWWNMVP

Row | SMILES | IC50 [1] | IC50 [2]
1 | [2H]C1([2H])[C@H](N)[C@@H]2CC[C@@H](C2)N1C(=O)c1cc(OC)c2c(c1)nc(-c1cc3ccc(C(C)NC(=O)C45CC(F)(C4)C5)nc3n1CC1CC1)n2C (stereo partly drawn) [Example 301, N-((R)-1-(2-(5-((1S,4R,5R)-4-amino-2-azabicyclo[3.2.1]octane-2-carbonyl-3,3-d2)-7-methoxy-1-methyl-1H-benzo[d]imidazol-2-yl)-1-(cyclopropylmethyl)-1H-pyrrolo[2,3-b]pyridin-6-yl)ethyl)-3-fluorobicyclo[1.1.1]pentane-1-carboxamide] | 65.8 nM | 
2 | COc1cc(C(=O)N2C[C@H](N)CCN2C)cc2nc(-c3cc4ccc([C@@H](C)NC(=O)C5(C)CC5)nc4n3CC3CC3)n(C)c12 [Example 200, N-((R)-1-(2-(5-((R)-5-amino-2-methylhexahydropyridazine-1-carbonyl)-7-methoxy-1-methyl-1H-benzo[d]imidazol-2-yl)-1-(cyclopropylmethyl)-1H-pyrrolo[2,3-b]pyridin-6-yl)ethyl)-1-methylcyclopropane-1-carboxamide] |  | 64.2 nM
3 | C[C@@H](NC(=O)[C@H]1CC1(F)F)c1ccc2cc(-c3nc4cc(C(=O)N5C[C@H](N)[C@@H]6CC[C@H]5C6)cc(F)c4n3C3CC3)n(CC3CC3)c2n1 [Example 227, (R)-N-((R)-1-(2-(5-((1S,4R,5R)-4-amino-2-azabicyclo[3.2.1]octane-2-carbonyl)-1-cyclopropyl-7-fluoro-1H-benzo[d]imidazol-2-yl)-1-(cyclopropylmethyl)-1H-pyrrolo[2,3-b]pyridin-6-yl)ethyl)-2,2-difluorocyclopropane-1-carboxamide] |  | 46.8 nM
4 | COc1cc(C(=O)N2C[C@H](N)CCN2C)cc2nc(-c3cc4ccc([C@@H](C)NC(=O)c5c(C)cccc5C(F)(F)F)nc4n3CC3CC3)n(C)c12 [Example 184, N-((R)-1-(2-(5-((R)-5-amino-2-methylhexahydropyridazine-1-carbonyl)-7-methoxy-1-methyl-1H-benzo[d]imidazol-2-yl)-1-(cyclopropylmethyl)-1H-pyrrolo[2,3-b]pyridin-6-yl)ethyl)-2-methyl-6-(trifluoromethyl)benzamide] |  | 204 nM
5 | COc1cc(C(=O)N2[C@H]3CC[C@@H]2[C@H](N)C3)cc2nc(-c3cc4ccc([C@@H](C)NC(=O)C56CC(F)(C5)C6)nc4n3CC3CC3)n(C)c12 [Example 121, N-((R)-1-(2-(5-((1R,2R,4S)-2-amino-7-azabicyclo[2.2.1]heptane-7-carbonyl)-7-methoxy-1-methyl-1H-benzo[d]imidazol-2-yl)-1-(cyclopropylmethyl)-1H-pyrrolo[2,3-b]pyridin-6-yl)ethyl)-3-fluorobicyclo[1.1.1]pentane-1-carboxamide] |  | 46.3 nM
6 | COc1cc(C(=O)N2[C@H]3CC[C@@H]2[C@H](N)C3)cc2nc(-c3cc4ccc(N(C(C)C)S(C)(=O)=O)nc4n3CC3CC3)n(C)c12 [Example 84, N-(2-(5-((1R,2R,4S)-2-amino-7-azabicyclo[2.2.1]heptane-7-carbonyl)-7-methoxy-1-methyl-1H-benzo[d]imidazol-2-yl)-1-(cyclopropylmethyl)-1H-pyrrolo[2,3-b]pyridin-6-yl)-N-isopropylmethanesulfonamide] |  | 58.3 nM
7 | COc1cc(C(=O)N2CCC[C@@H](N)[C@H]2C)cc2nc(-c3cc4ccc(N(C)S(C)(=O)=O)nc4n3CC3CC3)n(CC3CC3)c12 [Example 24, N-(2-(5-((2R,3R)-3-amino-2-methylpiperidine-1-carbonyl)-1-(cyclopropylmethyl)-7-methoxy-1H-benzo[d]imidazol-2-yl)-1-(cyclopropylmethyl)-1H-pyrrolo [2,3-b]pyridin-6-yl)-N-methylmethanesulfonamide] |  | 124 nM
8 | Cc1cc2c(cc1C(=O)N1C[C@H]3CC[C@@H]1[C@@H]3N)nc(-c1cc3ccc(N(C(F)F)S(C)(=O)=O)nc3n1CC1CC1)n2C [Example 57, N-(2-(5-((1R,4R,7R)-7-amino-2-azabicyclo[2.2.1]heptane-2-carbonyl)-1,6-dimethyl-1H-benzo[d]imidazol-2-yl)-1-(cyclopropylmethyl)-1H-pyrrolo[2,3-b]pyridin-6-yl)-N-(difluoromethyl) methanesulfonamide] |  | 11200 nM
9 | COc1cc(C(=O)N2C[C@H](N)[C@@H]3CC[C@H]2C3)cc2nc(-c3cc4ccc([C@@H](C)NC(=O)c5cnn(C6CC6)c5)nc4n3CC3CC3)n(C)c12 [Example 319, N-((R)-1-(2-(5-((1S,4R,5R)-4-amino-2-azabicyclo[3.2.1]octane-2-carbonyl)-7-methoxy-1-methyl-1H-benzo[d]imidazol-2-yl)-1-(cyclopropylmethyl)-1H-pyrrolo[2,3-b]pyridin-6-yl)ethyl)-1-cyclopropyl-1H-pyrazole-4-carboxamide] | 58 nM | 
10 | COc1cc(C(=O)N2CCC[C@@H](N)C2)cc2nc(-c3cc4cc(F)c([C@@H](C)NC(=O)c5cnn(C)c5)cc4n3CC3CC3)n(C)c12 [Example 150, N-((R)-1-(2-(5-((R)-3-aminopiperidine-1-carbonyl)-7-methoxy-1-methyl-1H-benzo[d]imidazol-2-yl)-1-(cyclopropylmethyl)-5-fluoro-1H-indol-6-yl)ethyl)-1-methyl-1H-pyrazole-4-carboxamide] |  | 116 nM
11 | COc1cc(C(=O)N2C[C@H](N)CC[C@@H]2C)cc2nc(-c3cc4ccc(N5C(=O)CCC5C)nc4n3CC3CC3)n(C)c12 (stereo partly drawn) [Example 280, 1-(2-(5-((2S,5R)-5-amino-2-methylpiperidine-1-carbonyl)-7-methoxy-1-methyl-1H-benzo[d]imidazol-2-yl)-1-(cyclopropylmethyl)-1H-pyrrolo[2,3-b]pyridin-6-yl)-5-methylpyrrolidin-2-one] |  | 531 nM
12 | COc1cc(C(=O)N2CCC[C@@H](N)C2)cc2nc(-c3cc4ccc([C@@H](C)NC(=O)C(C)(C)C)nc4n3CC3CC3)n(C3CC3)c12 [Example 128, N-((R)-1-(2-(5-((R)-3-aminopiperidine-1-carbonyl)-1-cyclopropyl-7-methoxy-1H-benzo[d]imidazol-2-yl)-1-(cyclopropylmethyl)-1H-pyrrolo[2,3-b]pyridin-6-yl)ethyl)pivalamide] |  | 61.5 nM
13 | COc1cc(C(=O)N2CCC[C@@H](N)C2)cc2nc(-c3cc4ccc(S(=O)(=O)C(C)C)nc4n3CC3CC3)n(C)c12 [Example 254, (R)-(3-aminopiperidin-1-yl)(2-(1-(cyclopropylmethyl)-6-(isopropylsulfonyl)-1H-pyrrolo[2,3-b]pyridin-2-yl)-7-methoxy-1-methyl-1H-benzo[d]imidazol-5-yl)methanone] |  | 550 nM
14 | COc1cc(C(=O)N2C[C@H](N)CCN2C)cc2nc(-c3cc4ccc([C@@H](C)NC(=O)c5cc(F)cc(F)c5C)nc4n3CC3CC3)n(C)c12 [Example 213, N-((R)-1-(2-(5-((R)-5-amino-2-methylhexahydropyridazine-1-carbonyl)-7-methoxy-1-methyl-1H-benzo[d]imidazol-2-yl)-1-(cyclopropylmethyl)-1H-pyrrolo[2,3-b]pyridin-6-yl)ethyl)-3,5-difluoro-2-methylbenzamide] |  | 134 nM
15 | COc1cc(C(=O)N2C[C@H](N)CC[C@@H]2C)cc2nc(-c3cc4ccc(-c5cccc6c5CNC6=O)nc4n3CC3CC3)n(C)c12 [Example 262, 4-(2-(5-((2S,5R)-5-amino-2-methylpiperidine-1-carbonyl)-7-methoxy-1-methyl-1H-benzo[d]imidazol-2-yl)-1-(cyclopropylmethyl)-1H-pyrrolo[2,3-b]pyridin-6-yl)isoindolin-1-one] |  | 584 nM
16 | CCCS(=O)(=O)N[C@H](C)c1ccc2cc(-c3nc4cc(C(=O)N5[C@H]6CC[C@@H]5[C@H](N)C6)cc(OC)c4n3C)n(CC3CC3)c2n1 [Example 240, N—((R)-1-(2-(5-((1R,2R,4S)-2-amino-7-azabicyclo[2.2.1]heptane-7-carbonyl)-7-methoxy-1-methyl-1H-benzo[d]imidazol-2-yl)-1-(cyclopropylmethyl)-1H-pyrrolo[2,3-b]pyridin-6-yl)ethyl)propane-1-sulfonamide] |  | 65.6 nM
17 | COc1cc(C(=O)N2C[C@H](N)[C@@H]3CC[C@H]2C3)cc2nc(-c3cc4ccc([C@@H](C)NC(=O)C(C)(C)C(F)F)nc4n3CC3CC3)n(C)c12 [Example 323, N-((R)-1-(2-(5-((1S,4R,5R)-4-amino-2-azabicyclo[3.2.1]octane-2-carbonyl)-7-methoxy-1-methyl-1H-benzo[d]imidazol-2-yl)-1-(cyclopropylmethyl)-1H-pyrrolo[2,3-b]pyridin-6-yl)ethyl)-3,3-difluoro-2,2-dimethylpropanamide] | 84.6 nM | 
18 | COc1cc(C(=O)N2CC[C@@H](C)[C@@H](N)C2)cc2nc(-c3cc4ccc(N(C5CC5)S(C)(=O)=O)nc4n3CC3CC3)n(C)c12 [Example 34, N-(2-(5-((3R,4R)-3-amino-4-methylpiperidine-1-carbonyl)-7-methoxy-1-methyl-1H-benzo[d]imidazol-2-yl)-1-(cyclopropylmethyl)-1H-pyrrolo [2,3-b]pyridin-6-yl)-N-cyclopropylmethanesulfonamide] |  | 300 nM
19 | COc1cc(C(=O)N2C[C@H](N)CCN2C)cc2nc(-c3cc4ccc([C@@H](C)NC(=O)c5ccccc5)nc4n3CC3CC3)n(C)c12 [Example 154, N-((R)-1-(2-(5-((R)-5-amino-2-methylhexahydropyridazine-1-carbonyl)-7-methoxy-1-methyl-1H-benzo[d]imidazol-2-yl)-1-(cyclopropylmethyl)-1H-pyrrolo[2,3-b]pyridin-6-yl)ethyl)benzamide] |  | 89.7 nM
20 | COc1cc(C(=O)N2C[C@H](N)CC[C@@H]2C)cc2nc(-c3cc4ccc(-c5ccc6nnnn6c5C)nc4n3CC3CC3)n(C)c12 [Example 275, ((2S,5R)-5-amino-2-methylpiperidin-1-yl)(2-(1-(cyclopropylmethyl)-6-(5-methyltetrazolo[1,5-a]pyridin-6-yl)-1H-pyrrolo[2,3-b]pyridin-2-yl)-7-methoxy-1-methyl-1H-benzo[d]imidazol-5-yl)methanone] |  | 658 nM
